The results in this text go back to US20260000676A1, “CHROMAN DERIVATIVES AS ESTROGEN RECEPTOR DEGRADERS” (THE REGENTS OF THE UNIVERSITY OF MICHIGAN, priority 2022, published 2026).

The target in test [1] is T1, ER (Homo sapiens (Human), UniProt P03372). Briefly: In-cell western (ICW) ER degradation assay in MCF-7 cells. The class given is cell-based. Particulars: MCF7, 16 hrs; for DC50: ER degradation; for MCF7 Dmax %: maximal ER degradation; for Dmax: MCF7, maximal ER degradation.
Test [2] relates to MCF-7 cells. To be noted: read-out: MCF7 Proliferation IC50; CellTiter-Glo, day 6.
Protocol: (§1) In vitro assay can be accomplished by MCF-7 and T47D Cell Titer Glo (CTG) assay. MCF-7 and T47D cell (From HDB) are cultured in multi-well white plate with phenol red-free RPMI1640+10% CS-FBS+1% P/S medium (e.g., at 1,000 cells/well). On day 0: Cells are treated with compound at certain concentrations (e.g., 0.5 to 10000 nM) (DMSO and Staurosporine as control). On day 0 and day 6: add Cell Titer Glo reagent and read on EnVision after 30 min incubation for data generation.
(§2) • 1) Cell culture medium: phenol red-free RPMI1640+10% CS-FBS, 1% P/S
(§3) Day-1: MCF-7 and T47D cell (From HDB) were cultured in 384-well white plate with phenol red-free RPMI1640+10% CS-FBS+1% P/S medium (1,000 cells/well) for overnight at 37° C., 5% CO2 incubator.
(§4) Day 0: Cells were treated at desired compound concentrations (0.5 to 10000 nM) (DMSO and Staurosporine as control) for Day 6 at 37° C., 5% CO2 incubator.
(§5) Day 0 and Day 6: add Cell TiterGlo reagent and read on EnVision after 30 min incubation for data generation.
Test [3] has as its target T1, ER. The test can be described thus: In-cell western (ICW) ER degradation assay in T47D cells. The format is cell-based. To be noted: 16 hrs; for DC50: ER degradation; for T47D Dmax % / Dmax: maximal ER degradation.
Another test addresses CRBN/DDB1 (Homo sapiens (Human), UniProt Q96SW2). Briefly: HTRF binding assay to CRBN/DDB1. Particulars: for pIC50: read-out: CRBN HTRF IC50. The protocol:
The binding potency was determined using HTRF assay technology (Perkin Elmer). Compounds were serially diluted in DMSO and 0.2 μL volume was transferred to white 384-well plate.
For orientation: Time-resolved FRET reads energy transfer from a long-lived donor to a nearby acceptor.

Test [4] deals with T47D cells. To be noted: read-out: T47D Proliferation IC50; CellTiter-Glo, day 6.
Protocol: as §1, §2, §3, §4, §5
The next test addresses ERα_LBD(GST) (Homo sapiens (Human), UniProt P03372). Briefly: LanthaScreen TR-FRET ERα competitive binding assay. To be noted: read-out: ERα HTRF IC50. The method in brief:
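GST-tagged ERα LBD (4 nM) with Tb anti-GST (2 nM) and Fluormone ES2 Green tracer (3 nM) in nuclear receptor buffer K plus 5 mM DTT, 1% DMSO; 3-fold compound dilutions, 60 min at room temperature in the dark. TR-FRET 520/495 nm ratio vs log[ligand], sigmoidal fit for IC50; 1 μM ARV_471 as full-inhibition control.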

Test [5] has as its target T1, ER. Briefly: In-cell western blot analysis (Compounds B1 to B5). The class given is cell-based. To be noted: 16 hours; read-out: ICW DC50. As for the experimental part: In-cell western blot analysis. Cells are seeded in multi-well plates (e.g., at 40,000 or 10,000 cells/well). Diluted compounds at certain concentration are added (final 0.5% DMSO) and cells are incubated for a certain period of time (e.g., 16 hours). Formaldehyde (e.g., PBS:FA=9:1) is added and followed by washing with PBS. The cells are blocked with Licor blocking buffer (Li-Cor). The relative ER percentage in treated cells were obtained by comparing the values of treated wells to those in untreated and DMSO-treated wells as 100%.
In-cell western blot analysis, a. seed cells in black-sided/clear bottom 96- or 384-well plates at 40,000 or 10,000 cells/well, overnight; b, add diluted compounds (final 0.5% DMSO), 16 hours. 16 h later, remove medium, add 100 μL or 25 µL of 3.7-4.0% formaldehyde (PBS: FA=9:1), RT 20 min, no shaking; c. wash with PBS, and permeabilized with 100 μL or 25 μL/well of 1×PBS+0.1% Triton X-100 10 minutes; d. block with 100 μL or 25 L Licor blocking buffer (Li-Cor), RT 1 h, moderate shaking; d. Add 100 μL or 25 μL of anti-ER (cs-8644, 1:500-1,000)+GAPDH (Millipore MAB374, 1:1000) in Block+0.05% Tween 20. RT 2 h, gentle shaking. Negative control: cells plus secondary antibodies (no primary antibodies); e. wash×4 with PBS+0.05-0.1% Tween 20, gentel shaking; f, anti-rabbit-680 and anti-mouse-800 (both 1:1000 in LiCor block+0.05% Tween20, RT 1 h, gentle shaking, no light. LI-COR: 0.2% to reduce background; g. wash×4 with PBS+0.05% Tween 20, gental shaking; h, add 100 μL or 25 μL of PBS to each well and read on CLX plate reader. The relative ER percentage in treated cells were obtained by comparing the values of treated wells to those in untreated and DMSO-treated wells as 100%.

The test system of a further test is T47D cell line. The test can be described thus: Cell growth assay (WST-8) in T47D cell line. The class given is cell-based. To be noted: Homo sapiens, 96 h, WST-8, 4 days, read-out: Cell Growth Inhibition in T47D cell line IC50. As for the experimental part:
Cell Growth Assay. The cells are seeded at certain concentration (e.g., at 1500/well) in multi-well plates overnight. Cells are subsequently treated with the compounds. A certain period of time (e.g., 4 days) after the compound treatment, 10% WST-8 reagent is added to the culture medium and incubate under certain conduction (e.g., in a CO2 incubator at 37° C. for 2.5 hours). The absorbance is measured on each sample using a microplate reader at certain wavelength (e.g., 450 nm). The relative absorbance is calculated against the vehicle control from three individually repeats.
Cell Growth Assay. The cells were seeded at 1500/well in 96 well plates overnight. One day after the seeding, they were treated with indicated doses of compounds respectively. 4 days after the compound treatment, 10% WST-8 reagent was added to the culture medium and incubate in a CO2 incubator at 37° C. for 2.5 hours. Before reading, the plate was mixed gently on an orbital shaker for one minute to ensure homogeneous distribution of color. The absorbance was measured of each sample using a microplate reader at a wavelength of 450 nm. The relative absorbance was calculated against the vehicle control from three individually repeats.

Test [6] concerns MCF-7 cells. Briefly: cells. To be noted: Homo sapiens, MCF7, 144 h, read-out: MCF7 Proliferation IC50 (nM).
Protocol: as §1, §2, §3, §4, §5
Test [7] concerns T47D cells. The test can be described thus: cells. To be noted: Homo sapiens, 144 h, read-out: T47D Proliferation IC50 (nM).
Protocol: as §1, §2, §3, §4, §5

pIC50: −log10 of the molar value. Where two headings read alike, the source gives them in different places.

Chain of ERα_LBD(GST) (P03372 311-547): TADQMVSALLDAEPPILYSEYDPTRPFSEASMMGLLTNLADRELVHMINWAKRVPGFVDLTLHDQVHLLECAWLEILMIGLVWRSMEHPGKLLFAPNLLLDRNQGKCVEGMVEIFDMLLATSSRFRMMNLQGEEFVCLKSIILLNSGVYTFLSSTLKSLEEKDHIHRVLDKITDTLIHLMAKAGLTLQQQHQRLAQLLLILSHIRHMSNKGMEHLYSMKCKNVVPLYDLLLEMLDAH
Chain of CRBN/DDB1 (Q96SW2 whole entry): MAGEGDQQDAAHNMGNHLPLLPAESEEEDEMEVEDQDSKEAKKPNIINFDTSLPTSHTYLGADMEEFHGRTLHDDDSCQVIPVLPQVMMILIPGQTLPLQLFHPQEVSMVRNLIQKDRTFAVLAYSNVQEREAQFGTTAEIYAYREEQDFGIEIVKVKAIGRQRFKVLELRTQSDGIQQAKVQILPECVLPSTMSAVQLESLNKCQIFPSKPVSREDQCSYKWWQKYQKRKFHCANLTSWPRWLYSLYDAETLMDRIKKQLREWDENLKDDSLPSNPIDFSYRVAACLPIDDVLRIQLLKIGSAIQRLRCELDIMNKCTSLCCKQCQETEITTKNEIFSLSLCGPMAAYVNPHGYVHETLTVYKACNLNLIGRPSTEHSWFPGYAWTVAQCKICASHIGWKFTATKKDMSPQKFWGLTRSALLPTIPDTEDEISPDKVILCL
Chain of CRBN/DDB1 (Q16531 whole entry partner): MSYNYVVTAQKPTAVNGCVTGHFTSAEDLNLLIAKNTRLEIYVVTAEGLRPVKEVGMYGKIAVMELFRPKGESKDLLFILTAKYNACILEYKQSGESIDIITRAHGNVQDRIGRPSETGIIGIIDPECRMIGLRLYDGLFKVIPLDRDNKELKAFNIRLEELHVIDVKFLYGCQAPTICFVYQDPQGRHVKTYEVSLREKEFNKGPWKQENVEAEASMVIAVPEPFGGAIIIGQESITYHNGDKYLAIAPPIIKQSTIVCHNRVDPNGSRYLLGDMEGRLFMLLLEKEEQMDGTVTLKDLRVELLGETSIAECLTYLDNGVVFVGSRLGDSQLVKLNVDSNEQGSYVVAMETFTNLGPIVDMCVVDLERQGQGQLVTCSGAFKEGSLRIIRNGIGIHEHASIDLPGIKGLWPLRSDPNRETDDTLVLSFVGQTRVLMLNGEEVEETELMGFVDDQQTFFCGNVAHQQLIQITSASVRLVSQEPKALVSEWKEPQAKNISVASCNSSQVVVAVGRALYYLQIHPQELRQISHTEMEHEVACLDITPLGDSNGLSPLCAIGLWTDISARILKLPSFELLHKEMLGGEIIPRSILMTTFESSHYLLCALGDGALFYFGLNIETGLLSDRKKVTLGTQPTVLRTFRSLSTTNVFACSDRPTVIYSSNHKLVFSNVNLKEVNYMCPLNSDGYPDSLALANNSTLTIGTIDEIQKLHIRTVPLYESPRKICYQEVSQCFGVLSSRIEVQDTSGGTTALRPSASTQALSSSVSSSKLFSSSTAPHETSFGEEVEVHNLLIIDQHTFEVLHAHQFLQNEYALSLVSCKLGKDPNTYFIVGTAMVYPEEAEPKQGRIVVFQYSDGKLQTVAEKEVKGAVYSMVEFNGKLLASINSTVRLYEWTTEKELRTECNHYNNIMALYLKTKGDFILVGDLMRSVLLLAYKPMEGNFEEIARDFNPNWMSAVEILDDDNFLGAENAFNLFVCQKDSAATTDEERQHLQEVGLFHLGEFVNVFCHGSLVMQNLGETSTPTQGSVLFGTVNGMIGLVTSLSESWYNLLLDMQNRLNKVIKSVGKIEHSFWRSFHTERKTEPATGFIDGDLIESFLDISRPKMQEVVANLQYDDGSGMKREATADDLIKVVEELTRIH
T1 sequence (P03372 whole entry): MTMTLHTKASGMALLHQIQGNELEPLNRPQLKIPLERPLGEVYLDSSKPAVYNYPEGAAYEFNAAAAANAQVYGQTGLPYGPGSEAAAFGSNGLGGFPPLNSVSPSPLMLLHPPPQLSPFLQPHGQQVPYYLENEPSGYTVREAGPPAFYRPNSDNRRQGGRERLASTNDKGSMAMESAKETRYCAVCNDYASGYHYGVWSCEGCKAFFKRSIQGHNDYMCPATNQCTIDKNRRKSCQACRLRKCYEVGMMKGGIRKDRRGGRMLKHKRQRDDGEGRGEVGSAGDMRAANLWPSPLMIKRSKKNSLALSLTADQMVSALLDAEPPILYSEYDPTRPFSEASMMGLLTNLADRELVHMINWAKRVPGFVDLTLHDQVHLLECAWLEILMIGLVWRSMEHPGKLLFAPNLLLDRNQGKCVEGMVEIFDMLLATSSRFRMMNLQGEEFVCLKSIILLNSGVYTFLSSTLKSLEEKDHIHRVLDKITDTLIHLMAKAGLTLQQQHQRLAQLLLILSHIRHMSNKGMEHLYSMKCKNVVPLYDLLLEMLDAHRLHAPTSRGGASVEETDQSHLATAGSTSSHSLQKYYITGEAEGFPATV

`O=C1CCC(N2Cc3cc4c(cc3C2=O)OC[C@@H]2CN(CC3CCC5(CC3)CN(c3ccc([C@@H]6c7ccc(O)cc7OC[C@@H]6c6ccccc6)cc3)C5)CCN42)C(=O)N1` (stereo partly drawn) [Compound A53, 3-((S)-3-((2-(4-((3S,4R)-7-hydroxy-3-phenylchroman-4-yl)phenyl)-2-azaspiro[3.5]nonan-7-yl)methyl)-8-oxo-1,2,3,4,4a,5,8,10-octahydro-9H-pyrazino[1′,2′:4,5][1,4]oxazino[2,3-f]isoindol-9-yl)piperidine-2,6-dione]: the DC50 on ER [1] and on ER [3] was 1 to 10 nM in each case. Further, the “MCF7 Dmax %” value on ER [1] is “B (“B”: >50% and <75%)”. In addition, the pIC50 in the test with MCF-7 cells [2] was 6.30 to 7.30; on CRBN/DDB1, 5.30 to 6.30; in the test with T47D cells [4], 6.30 to 7.30; at ERα_LBD(GST), greater than 8.30. Further, the “T47D Dmax %” value on ER [3] is given as “A (“A”; >=75%)”.

Consider `O=C1CCC(N2Cc3c(ccc4c3OC[C@H]3CN(CC5CC6(CCN(c7ccc(C8c9ccc(O)cc9OCC8c8ccccc8)cc7)CC6)C5)CCN43)C2=O)C(=O)N1` (stereo partly drawn) [Compound B2], for which, at ER [5], the DC50 was greater than 100 nM. The pIC50 in the test with T47D cell line was less than 8.00.

`O=C1CCC(N2Cc3cc(N4CCN(CC5CC6(CCN(c7ccc([C@H]8c9ccc(O)cc9OC[C@H]8c8ccccc8)cn7)CC6)C5)CC4)ccc3C2=O)C(=O)N1` (stereo partly drawn) [Compound A98, (R)-3-(5-(4-((7-(5-((3R,4S)-7-hydroxy-3-3-phenylchroman-4-yl)pyridin-2-yl)-7-azaspiro[3.5]nonan-2-yl)methyl)piperazin-1-yl)-1-oxoisoindolin-2-yl)piperidine-2,6-dione]: the DC50 on ER [1] and at ER [3] was less than 1 nM each time. Also, the Dmax at ER [1] and on ER [3] was no less than 75% in each case. The results for the pIC50 with MCF-7 cells [2], at CRBN/DDB1 and in the test with T47D cells [4] were greater than 7.30, 6.30 to 7.30 and greater than 7.30, respectively.

Consider `O=C1CCC(N2Cc3cc(N4CCN(CC5CC6(CCN(c7ccc([C@@H]8c9ccc(O)cc9OC[C@@H]8c8ccccc8)cn7)CC6)C5)CC4)ccc3C2=O)C(=O)N1` (single isomer, unassigned) [Compound A92], for which the DC50 on ER [1] and at ER [3] was less than 1 nM throughout. The “MCF7 Dmax %” value at ER [1] was “B (“B”: >50% and <75%)”. In addition, the pIC50 with MCF-7 cells [2] and with T47D cells [4] was greater than 7.30 throughout. Moreover, the “T47D Dmax %” value at ER [3] is “B (“B”: >50% and <75%)”. Further, the IC50 on CRBN/DDB1 (CRBN HTRF IC50 (nM)) is greater than 5000 nM.

Turning to `O=C1CCC(N2Cc3c(ccc4c3OCC43CCN(CC4CC5(CCN(c6ccc(C7c8ccc(O)cc8OCC7c7ccccc7)cc6)CC5)C4)CC3)C2=O)C(=O)N1` (stereo not drawn) [Compound B4, 3-(1′-((7-(4-(7-hydroxy-3-phenylchroman-4-yl)phenyl)-7-azaspiro[3.5]nonan-2-yl)methyl)-6-oxo-6,8-dihydro-2H,7H-spiro[furo [2,3-e]isoindole-3,4′-piperidin]-7-yl)piperidine-2,6-dione], the DC50 on ER [5] was greater than 100 nM. The pIC50 in the test with T47D cell line is less than 8.00.

For the compound `O=C1CCC(N2Cc3cc4c(cc3C2=O)OC[C@@H]2CN(CC3CCC5(CC3)CN(c3ccc([C@@H]6c7ccc(O)cc7OC[C@@H]6c6ccccc6)cc3)C5)CCN42)C(=O)N1` (single isomer, unassigned) [Compound A58], the DC50 on ER [1] and at ER [3] was 1 to 10 nM each time. On ER [1], the “MCF7 Dmax %” value is reported as “C (“C”: 25%-50%)”. Moreover, the “T47D Dmax %” value on ER [3] is “B (“B”: >50% and <75%)”. In addition, the pIC50 is 5.30 to 6.30 on CRBN/DDB1 and greater than 8.30 at ERα_LBD(GST). Also, the IC50 in the test with MCF-7 cells [6] and in the test on T47D cells [7] was 50 to 500 nM throughout.

Turning to `O=C1CCC(N2Cc3c(ccc4c3OC[C@H]3CN(CC5CCN(c6ccc(C7c8ccc(O)cc8OCC7c7ccccc7)cc6)CC5)CCN43)C2=O)C(=O)N1` (stereo partly drawn) [Compound B1, 3-((5aR)-7-((1-(4-(7-hydroxy-3-phenylchroman-4-yl)phenyl)piperidin-4-yl)methyl)-1-oxo-1,3,5,5a,6,7,8,9-octahydro-2H-pyrazino[1′,2′:4,5][1,4]oxazino[2,3-e]isoindol-2-yl) piperidine-2,6-dione], the DC50 on ER [5] was greater than 100 nM. The pIC50 with T47D cell line is less than 8.00.

As to `O=C1CCC(N2C(=O)c3cc4c(cc3C2=O)CN(CC(=O)N2CCC3(CC2)CCN(c2ccc(C5c6ccc(O)cc6OCC5c5ccccc5)cc2)CC3)C4)C(=O)N1` (stereo not drawn) [Compound B5, 2-(2,6-dioxopiperidin-3-yl)-6-(2-(9-(4-(7-hydroxy-3-phenylchroman-4-yl)phenyl)-3,9-diazaspiro[5.5]undecan-3-yl)-2-oxoethyl)-6,7-dihydropyrrolo[3,4-f]isoindole-1,3(2H,5H)-dione], the DC50 on ER [5] is greater than 100 nM. In the test on T47D cell line, the pIC50 was less than 8.00.

On to `O=C1CCC(N2Cc3cc4c(cc3C2=O)OC[C@@H]2CN(CC3CC5(CCN(c6ccc(C7c8ccc(O)cc8OCC7c7ccccc7)cc6)CC5)C3)CCN42)C(=O)N1` (stereo partly drawn) [Compound B3, 3-((4aS)-3-((7-(4-(7-hydroxy-3-phenylchroman-4-yl)phenyl)-7-azaspiro[3.5]nonan-2-yl)methyl)-8-oxo-1,2,3,4,4a,5,8,10-octahydro-9H-pyrazino[1′,2′:4,5] [1,4]oxazino[2,3-f]isoindol-9-yl) piperidine-2,6-dione], for which, on ER [5], the DC50 is greater than 100 nM. Further, in the test with T47D cell line, the pIC50 is less than 8.00.

Consider `COc1cc(C(=O)NC2CCC(=O)NC2=O)ncc1N1CCN(CC2CCC3(CC2)CN(c2ccc([C@H]4c5ccc(O)cc5OC[C@H]4c4ccccc4)cc2)C3)CC1` (mixture of isomers) [Compound A117, N-(2,6-dioxopiperidin-3-yl)-5-(4-((2-(4-((3R,4S)-7-hydroxy-3-phenylchroman-4-yl)phenyl)-2-azaspiro[3.5]nonan-7-yl)methyl)piperazin-1-yl)-4-methoxypicolinamide], for which the DC50 on ER [1] and on ER [3] was less than 1 nM throughout. For the same compound, the Dmax on ER [1] and on ER [3] was no less than 75% each time. Further, the pIC50 on CRBN/DDB1 is 5.30 to 6.30; on ERα_LBD(GST) it was greater than 8.30. The IC50 with MCF-7 cells [6] and with T47D cells [7] was less than 50 nM each time.
